Experiment [1] has as its system DIO male mice. Nature of the experiment: Body weight of diet-induced obese mice under daily subcutaneous treatment. It counts as in vivo. The following applies: daily subcutaneous injections, vs vehicle.
Experimental: (§1) Six- to eight-week-old male C57Bl/6 mice were given ad libitum access to a high-fat, high-sugar diet comprising 58% kcal fat (D12331; Research Diets, New Brunswick, N.J.). The mice had free access to water and were maintained at 23±1° C., constant humidity and on a 12-h light-dark cycle. Mice were maintained under these conditions for a minimum of 20 weeks before study initiation. At study start, mice were randomized into groups matched for body weight and body composition. Compounds were administered subcutaneously 1 h before the onset of the dark phase. Co-administration of compounds was administered by single formulated injections. Assessment of energy intake, energy expenditure and home-cage activity were performed using an indirect calorimetry system (TSE Phenotmaster, TSE Systems, Bad Homburg, Germany).
To assess the effect of icilin alone on the body weight and food intake, DIO male mice were treated 16 days with vehicle (control) or icilin (0.6 mg/kg or 6 mg/kg). […] Compounds were administered by daily subcutaneous injections.
To assess the effect of the combination therapy on the body weight, DIO male mice were treated 4 days with vehicle (control), DMPP alone (10 mg/kg), icilin alone (5 mg/kg) or DMPP (10 mg/ml)+icilin (5 mg/kg). Compounds were administered by daily subcutaneous injections. […]
Experiment [2] has as its system DIO male mice. Nature of the experiment: Glucose tolerance (intraperitoneal glucose challenge) in DIO mice. In kind it is in vivo. As to conditions: 7-days treatment, daily subcutaneous injections, vs vehicle.
Experimental: We also investigated the effect of DMPP alone on glucose tolerance and area under the curve (AUC). Glucose tolerance was assessed following 7-days treatment of DIO male mice with vehicle (control) or DMPP (1 mg/kg, 5 mg/kg or 10 mg/ml). Compounds were administered by daily subcutaneous injections.
Glucose tolerance was assessed following 7-days treatment of DIO male mice with vehicle (control) or icilin (6 mg/kg). […] Compounds were administered by daily subcutaneous injections.
Glucose tolerance was assessed following 7-days treatment of DIO male mice with vehicle (control), DMPP alone (10 mg/kg), icilin alone (5 mg/kg) or DMPP (10 mg/ml)+icilin (5 mg/kg). Compounds were administered by daily subcutaneous injections.
Experiment [3] has as its system DIO male mice. As to conditions: 14 days, DMPP 1 mg/kg, 5 mg/kg or 10 mg/ml, daily subcutaneous injections, vs vehicle.
Experimental: as §1
To assess the effect of DMPP alone on the body weight and food intake, diet-induced obese (DIO) male mice were treated 14 days with vehicle (control) or DMPP (1 mg/kg, 5 mg/kg or 10 mg/ml). Compounds were administered by daily subcutaneous injections.
Experiment [4] relates to DIO male mice. The experiment in a line: Fasting glucose in DIO mice. The following applies: 23-days treatment, icilin 6 mg/kg, daily subcutaneous injections, vs vehicle. In kind it is in vivo. The protocol: Glucose tolerance was analyzed in 6 h fasted mice, following an intraperitoneal challenge with 1.5 g glucose per kg body weight. Glucose levels were measured in blood sampled from the tail veins before (0 min) and at 15, 30, 60 and 120 min post injection. To measure glucose-stimulated insulin secretion blood was collected from tail veins into EDTA-coated microvette tubes (Sarstedt) at time points 0, 15 and 60 min post glucose injection. Insulin sensitivity was assessed in 6 h fasted mice following an intraperitoneal injection of 0.7 U of insulin (Actrapid) per kg body weight. Blood glucose levels were measured before (0 min) and at 15, 30, 60 and 120 minutes after the insulin injection. Insulin was measured with commercially available kit (ALPCO Diagnostics, Salem, N.H.) per the manufacturer's instructions.
Glucose tolerance was assessed following 7-days treatment of DIO male mice with vehicle (control) or icilin (6 mg/kg). The results are shown in FIG. 3(D) (control: white; icilin: black). Fasting glucose was assessed following 23-days treatment of DIO male mice with vehicle (control) or icilin (6 mg/kg). Compounds were administered by daily subcutaneous injections. The results are shown in FIG. 3(E) (control: white bar; icilin: black bar).

Experiment [5] concerns DIO male mice. The experiment in a line: Energy expenditure (indirect calorimetry) in DIO mice. In kind it is in vivo. The following applies: 5-days treatment, icilin 6 mg/kg, daily subcutaneous injections, vs vehicle. The procedure: To assess the effect of icilin alone on the body weight and food intake, DIO male mice were treated 16 days with vehicle (control) or icilin (0.6 mg/kg or 6 mg/kg). The results of these treatments are shown in FIGS. 3(A) and 3(B) (control: white circle; icilin: 0.6 mg/kg (star) or 6 mg/kg (black circle)). The effect on energy expenditure was investigated by a 5-days treatment of DIO male mice with vehicle (control) or icilin (6 mg/kg). Compounds were administered by daily subcutaneous injections. The results of these treatments are shown in FIG. 3(C) (control: white bar; icilin: black bar).

Molecules are shown by their SMILES.

Take `C[N+]1(C)CCN(c2ccccc2)CC1` [DMPP, dimethylphenylpiperazinium]: the “effect on body weight” value in experiment [1] (14 days, DMPP 1 mg/kg, 5 mg/kg or 10 mg/ml) was “dose-dependent weight lowering effect”. In experiment [2] (DMPP 1 mg/kg, 5 mg/kg or 10 mg/ml), the “effect on glucose tolerance and area under the curve (AUC)” value is “dose-dependent improvement in glucose tolerance”. Moreover, the “effect on food intake” value in experiment [3] is “reduction in food intake”.

`O=C1NC(c2cccc([N+](=O)[O-])c2)=CCN1c1ccccc1O` [icilin, 3-(2-hydroxyphenyl)-6-(3-nitrophenyl)-3,4-dihydropyrimidin-2(1H)-one]: the “effect on body weight” value in experiment [1] (16 days, icilin 0.6 mg/kg or 6 mg/kg) is “dose-dependent weight loss”. For the same molecule, the “effect on glucose tolerance” value in experiment [2] (icilin 6 mg/kg) is “does not lead to a short term improvement in glucose tolerance”. For the same molecule, in experiment [4], the “effect on fasting glucose” value was “improved fasting glucose levels”. The “effect on energy expenditure” value in experiment [5] is “increased energy expenditure”.

(Values after patent publication US10568852B2, “Combination compositions and their use in methods for treating obesity and obesity-related disorders” (Helmholtz Zentrum Munchen—Deutsches Forschungszentrum fur …, priority 2015, dated 2020).)
